Assays:
Assay type in all cases: cell-based
P. mirabilis ATCC 29245 = assay: Broth microdilution MIC, ATCC strains; conditions: Proteus mirabilis, ATCC29245; P. mirabilis ATCC 29245; read-out: MIC (growth inhibition, microdilution method)
Outline: (§1)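 Tested per NCCLS M7-A6 broth microdilution with an inoculum of 5×10^5 CFU/ml and DMSO controls matching solvent levels. Panels were incubated 16 to 20 hours at 35° C. in ambient air, and the MIC was taken as the lowest concentration inhibiting visible growth.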

E. cloacae ATCC 23355 = assay: Broth microdilution MIC, ATCC strains; conditions: Enterobacter cloacae, ATCC23355; E. cloacae ATCC 23355; read-out: MIC (growth inhibition, microdilution method)
Outline: as §1

[1] = system: S. liquefaciens ATCC 27592; assay: Broth microdilution MIC, ATCC strains; conditions: S. liquefaciens ATCC 27592; read-out: MIC (growth inhibition, microdilution method)
Outline: as §1

[2] = system: S. maltophilia ATCC 13637; assay: Broth microdilution MIC, ATCC strains; conditions: Stenotrophomonas maltophilia, ATCC13637; S. maltophilia ATCC 13637; read-out: MIC (growth inhibition, microdilution method)
Outline: as §1

S. warneri ATCC 27836 = assay: Broth microdilution MIC, ATCC strains; conditions: Staphylococcus warneri, ATCC27836; S. warneri ATCC 27836; read-out: MIC (growth inhibition, microdilution method)
Outline: as §1

[3] = system: Ps. aeruginosa ATCC 27853; assay: Broth microdilution MIC, ATCC strains; conditions: Pseudomonas aeruginosa, ATCC27853; Ps. aeruginosa ATCC 27853; read-out: MIC (growth inhibition, microdilution method)
Outline: as §1

[4] = system: S. epidermidis ATCC 14990; assay: Broth microdilution MIC, ATCC strains; conditions: Staphylococcus epidermidis, ATCC14990; S. epidermidis ATCC 14990; read-out: MIC (growth inhibition, microdilution method)
Outline: as §1

E. faecium ATCC 35667 = assay: Broth microdilution MIC, ATCC strains; conditions: Enterococcus faecium, ATCC35667, read-out: MIC (growth inhibition, microdilution method)
Outline: as §1

[5] = system: S. saprophyticus ATCC 15305; assay: Broth microdilution MIC, ATCC strains; conditions: Staphylococcus saprophyticus, ATCC15305; S. saprophyticus ATCC 15305; read-out: MIC (growth inhibition, microdilution method)
Outline: as §1

A. anitratus ATCC 19606 = assay: Broth microdilution MIC, ATCC strains; conditions: Acinetobacter calcoaceticus, ATCC19606; A. anitratus ATCC 19606; read-out: MIC (growth inhibition, microdilution method)
Outline: as §1

MRSA ATCC 33591 = assay: Broth microdilution MIC, ATCC strains; conditions: Staphylococcus aureus; MRSA ATCC 33591; read-out: MIC (growth inhibition, microdilution method)
Outline: as §1

[6] = system: E. coli clinical isolates; assay: Broth microdilution MIC, clinical isolate strains (NAUTICA); conditions: Table 4B; each table row is one clinical isolate; unit assumed
Outline: as §1

[7] = system: E. aerogenes clinical isolates; assay: as above; conditions: Table 4B; each table row is one clinical isolate; unit assumed
Outline: as §1

[8] = system: B. cepacia clinical isolates; assay: as above; conditions: Table 4B; each table row is one clinical isolate; unit assumed
Outline: as §1

[9] = system: C. freundii clinical isolates; assay: as above; conditions: Table 4B; each table row is one clinical isolate; in µg/mL (unit assumed)
Outline: as §1

[10] = system: S. marcescens clinical isolates; assay: as above; conditions: Table 4B; each table row is one clinical isolate; unit assumed
Outline: as §1

[11] = system: S. maltophilia clinical isolates; assay: as above; conditions: Table 4B; each table row is one clinical isolate; unit assumed
Outline: as §1

[12] = system: P. mirabilis clinical isolates; assay: as above; conditions: Table 4B; each table row is one clinical isolate; unit assumed
Outline: as §1

[13] = system: E. cloacae clinical isolates; assay: as above; conditions: Table 4B; each table row is one clinical isolate; unit assumed
Outline: as §1

[14] = system: P. retgerri clinical isolates; assay: as above; conditions: Table 4B; each table row is one clinical isolate; unit assumed
Outline: as §1

[15] = system: S. liquifaciens clinical isolates; assay: as above; conditions: Table 4B; each table row is one clinical isolate; unit assumed
Outline: as §1

[16] = system: M. morganii clinical isolates; assay: as above; conditions: Table 4B; each table row is one clinical isolate; unit assumed
Outline: as §1

[17] = system: K. pneumoniae clinical isolates; assay: as above; conditions: Table 4B; each table row is one clinical isolate; unit assumed
Outline: as §1

[18] = system: A. baumanii clinical isolates; assay: as above; conditions: Table 4B; each table row is one clinical isolate; unit assumed
Outline: as §1

[19] = system: P. stuartii clinical isolates; assay: as above; conditions: Table 4B; each table row is one clinical isolate; unit assumed
Outline: as §1

[20] = system: C. koseril clinical isolates; assay: as above; conditions: Table 4B; each table row is one clinical isolate; unit assumed
Outline: as §1

[21] = system: C. amalonaticus clinical isolates; assay: as above; conditions: Table 4B; each table row is one clinical isolate; unit assumed
Outline: as §1

[22] = system: P. vulgaris clinical isolates; assay: as above; conditions: Table 4B; each table row is one clinical isolate; unit assumed
Outline: as §1

[23] = system: K. oxytoca clinical isolates; assay: as above; conditions: Table 4B; each table row is one clinical isolate; unit assumed
Outline: as §1

P. rettgeri CAP = assay: Broth microdilution MIC, reference strains; conditions: Providencia rettgeri; P. rettgeri (CAP in Table 1); read-out: MIC (growth inhibition, microdilution method)
Outline: as §1

SMILES | MIC (P. mirabilis ATCC 29245) [µg/mL] | MIC (E. cloacae ATCC 23355) [µg/mL] | MIC [1] [µg/mL] | MIC [2] [µg/mL] | MIC (S. warneri ATCC 27836) [µg/mL] | MIC [3] [µg/mL] | MIC [4] [µg/mL] | MIC (E. faecium ATCC 35667) [µg/mL] | MIC [5] [µg/mL] | MIC (A. anitratus ATCC 19606) [µg/mL] | MIC (MRSA ATCC 33591) [µg/mL] | MIC, E. COLI [6] [µg/mL] | MIC, E. AEROGENES [7] [µg/mL] | MIC, B. CEPACIA [8] [µg/mL] | MIC, C. FREUNDII [9] | MIC, S. MARCESCENS [10] [µg/mL] | MIC, S. MALTOPHILIA [11] [µg/mL] | MIC, P. MIRABILIS [12] [µg/mL] | MIC, E. CLOACAE [13] [µg/mL] | MIC, P. RETTGERI [14] [µg/mL] | other results
Cn1nnc(-c2cc(-c3ccc(F)cc3)sc2C(=O)O)n1 [DNM-142, 5-(4-Fluoro-phenyl)-3-(2-methyl-2H-tetrazol-5-yl)-thiophene-2-carboxylic acid] | > 16 | > 16 | > 16 | > 16 | > 16 | > 16 | > 16 | > 16 | > 16 | > 16 | > 16 | > 16 | > 16 | > 16 | >16 | > 16 | > 16 | > 16 | > 16 | > 16 | MIC, S. LIQUEFACIENS [15]: > 16 µg/mL; MIC, M. MORGANII [16]: > 16 µg/mL; MIC, K. PNEUMONIAE [17]: > 16 µg/mL; MIC, A. BAUMANII [18]: > 16 µg/mL; MIC, P. STUARTII [19]: > 16 µg/mL; MIC, C. KOSERI [20]: > 16 µg/mL; MIC, C. AMALONATICUS [21]: > 16 µg/mL; MIC, P. VULGARIS [22]: > 16 µg/mL; MIC, K. OXYTOCA [23]: > 16 µg/mL; MIC (P. rettgeri CAP): > 16 µg/mL
Cn1nnnc1-c1cc(-c2ccc(F)cc2)sc1C(=O)O [DNM-143, 5-(4-Fluoro-phenyl)-3-(1-methyl-1H-tetrazol-5-yl)-thiophene-2-carboxylic acid] | > 8 | > 8 | > 8 | > 8 | > 8 | > 8 | > 8 | > 8 | > 8 | > 8 | > 8 | > 8 | > 8 | > 8 | >8 | > 8 | > 8 | > 8 | > 8 | > 8 | MIC, S. LIQUEFACIENS [15]: > 8 µg/mL; MIC, M. MORGANII [16]: > 8 µg/mL; MIC, K. PNEUMONIAE [17]: > 8 µg/mL; MIC, A. BAUMANII [18]: > 8 µg/mL; MIC, P. STUARTII [19]: > 8 µg/mL; MIC, C. KOSERI [20]: > 8 µg/mL; MIC, C. AMALONATICUS [21]: > 8 µg/mL; MIC, P. VULGARIS [22]: > 8 µg/mL; MIC, K. OXYTOCA [23]: > 8 µg/mL; MIC (P. rettgeri CAP): > 8 µg/mL
COC(=O)c1sc(-c2ccc(F)cc2)cc1-c1nnn(C)n1 [DNM-144, 5-(4-fluoro-phenyl)-3-(2-methyl-2H-tetrazol-5-yl)-thiophene-2-carboxylic acid methyl ester] | > 8 | > 8 | > 8 | > 8 | > 8 | > 8 | > 8 | > 8 | > 8 | > 8 | > 8 | > 8 | > 8 | > 8 | >8 | > 8 | > 8 | > 8 | > 8 | > 8 | MIC, S. LIQUEFACIENS [15]: > 8 µg/mL; MIC, M. MORGANII [16]: > 8 µg/mL; MIC, K. PNEUMONIAE [17]: > 8 µg/mL; MIC, A. BAUMANII [18]: > 8 µg/mL; MIC, P. STUARTII [19]: > 8 µg/mL; MIC, C. KOSERI [20]: > 8 µg/mL; MIC, C. AMALONATICUS [21]: > 8 µg/mL; MIC, P. VULGARIS [22]: > 8 µg/mL; MIC, K. OXYTOCA [23]: > 8 µg/mL; MIC (P. rettgeri CAP): > 8 µg/mL
COC(=O)c1sc(-c2ccc(F)cc2)cc1-c1nnnn1C [DNM-145, 5-(4-Fluoro-phenyl)-3-(1-methyl-1H-tetrazol-5-yl)-thiophene-2-carboxylic acid methyl ester] | > 4 | > 4 | > 4 | > 4 | > 4 | > 4 | > 4 | > 4 | > 4 | > 4 | > 4 | > 4 | > 4 | > 4 | >4 | > 4 | > 4 | > 4 | > 4 | > 4 | MIC, S. LIQUEFACIENS [15]: > 4 µg/mL; MIC, M. MORGANII [16]: > 4 µg/mL; MIC, K. PNEUMONIAE [17]: > 4 µg/mL; MIC, A. BAUMANII [18]: > 4 µg/mL; MIC, P. STUARTII [19]: > 4 µg/mL; MIC, C. KOSERI [20]: > 4 µg/mL; MIC, C. AMALONATICUS [21]: > 4 µg/mL; MIC, P. VULGARIS [22]: > 4 µg/mL; MIC, K. OXYTOCA [23]: > 4 µg/mL; MIC (P. rettgeri CAP): > 4 µg/mL

Source: patent publication US8835476B2, “Synthesis of novel antimicrobials” (priority 2005, dated 2014)
